Reference: PubChem BioAssay AID2060906 (Molecular Pharmacology Branch, DTP, NCI, 2025)

Test system: 485176-168-R4-J1-PDC complex spheroid growth
Test: Anticancer human tumor 485176-168-R4-J1-PDC patient-derived pancreatic adenocarcinoma cell line growth inhibition [RAS]
Settings: for viability, T/C: stronger effect = lower value
Text: RAS pathway inhibitors in Combinations in Complex Spheroids
A high-throughput screen of multi-cell type tumor spheroids was designed to identify active combinations of RAS pathway inhibitors and targeted small molecules. Complex spheroids include a stromal component modeled by human endothelial cells (HUVEC) and fibroblasts modeled by human mesenchymal stem cells (MSCs). The concentration ranges selected for each drug and investigational agent were based upon clinically achievable concentrations if the clinical Cmax of the agent was known.
Compounds. The drugs and investigational agents: abemaciclib (NSC768073), cobimetinib (NSC768068), divarasib (GDC6063, NSC841802), docetaxel (NSC628503), GDC-1971 (RLY-1971, NSC841576), gemcitabine (NSC613327), inavolisib (NSC800729), ipatasertib (NSC767898), KB-0742 (NSC834161), MRTX-1133 (NSC836407), osimertinib (NSC779217), RMC-4630 (NSC839698), RMC-6236 (NSC851965), RMC-6291 (NSC852671), Ro-3306 (NSC812927), sapanisertib (NSC764658), SN-38 (NSC673596), staurosporine (NSC755774), SY5609 (NSC837396), and tovorafenib (DAY101, NSC766906), were obtained from the National Cancer Institute (NCI) Developmental Therapeutics Program Chemical Repository. The FDA-approved anticancer drug set is available from the NCI Developmental Therapeutics Program. […] The stock solutions were prepared in dimethyl sulfoxide (DMSO, Sigma-Aldrich, St. Louis, MO, cat. D2650) at 800-fold the tested concentration and stored at -70 degrees C prior to their use. All drugs and investigational agents were tested over a range starting from a high concentration at or near the clinical Cmax and decreasing in half-log increments. If the clinical Cmax for an agent had not been determined, the highest concentration tested was 10 microM.
Cell Culture. All cells were maintained in an incubator at 37 degrees C and 5% CO2 with 95% humidity. The PDC lines were cultured according to standard operating procedures established by the NCI PDMR. All PDCs were thawed and cultured in Matrigel-coated flasks prepared with a working solution of 1X Ham's F-12 nutrient mix, without supplementation (Invitrogen, Waltham, MA, cat. 11765054), 100 U/mL penicillin-streptomycin (Invitrogen, cat. 15140122), and 2.5% Matrigel (Corning Inc., Corning, NY, cat. 354248) for the first three passages. The 362531-283-R-J2-PDC and 782815-120-R-J1-PDC lines were cultured in 6C/Colon 1B media, which includes advanced DMEM/F-12 (Thermo Fisher Scientific, cat. 12634028), 10 mM HEPES (Thermo Fisher Scientific, cat. 15630080), 1X GlutaMAX supplement (Thermo Fisher Scientific, cat. 35050061), 0.1 mg/mL primocin (InvivoGen, San Diego, CA, cat. ant-pm-2), 10% defined fetal bovine serum, heat inactivated (HyClone Laboratories Inc., Logan, UT, cat. SH30070.03HI), 50% L-WRN conditioned media (ATCC, cat. CRL-3276), 1.25 mM N-Acetyl-L-cysteine (Sigma-Aldrich, cat. A9165), 10 mM nicotinamide (Sigma-Aldrich, cat. N0636), 1X B-27 supplement (Thermo Fisher Scientific, cat. 17504044), 1X N-2 supplement (Thermo Fisher Scientific, cat. 17502048), 50 ng/mL human EGF (Thermo Fisher Scientific, cat. PHG0311), and 10 microM Y-27632 dihydrochloride (Tocris Bioscience, cat. 1254). The K12877-001-R-J1-PDC line was cultured in 6I media, which includes all 6C/Colon 1B media plus 10 ng/mL human FGF-10 (PeproTech, cat. 100-26), 1 ng/mL human FGF-2 (PeproTech, cat. 100-18B), 1 µM prostaglandin E2 (Tocris Bioscience, cat. 2296), […] hydrocortisone (Sigma-Aldrich, cat. H4001), and […] bovine insulin (Sigma-Aldrich, cat. I6634). The K86415-001-R-J1-PDC line was cultured in 6D media, which includes all 6C/Colon 1B media components minus the L-WRN conditioned media. The 485176-168-R4-J1-PDC was cultured in PANC media, which includes all 6C/Colon 1B media plus 100 ng/mL human FGF-10 (PeproTech, cat. 100-26), 500 nM SB-431542 (Selleckchem, cat. S1067), and 10 nM gastrin (Tocris Bioscience, cat. 3006). […]
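Note: spheroids exposed to compounds for seven days before readout.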
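Throughout, for viability, T/C: luminescence viability expressed relative to DMSO vehicle wells set as 100%.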

O=C(c1ccc(F)c(F)c1Nc1ccc(I)cc1F)N1CC(O)([C@@H]2CCCCN2)C1 + CCn1c(-c2cc(N3CCN(C)CC3)cnc2C(C)OC)c2c3cc(ccc31)-c1csc(n1)CC(NC(=O)C1CC1C)C(=O)N1CCCC(N1)C(=O)OCC(C)(C)C2
IC50 (curve of first compound, second compound 0.000949 µM): 116 nM
IC50 (curve of first compound, second compound 0.003 µM): 90.2 nM
IC50 (curve of first compound, second compound 0.00949 µM): 33 nM
IC50 (curve of first compound, second compound 0.03 µM): 22.9 nM
IC50 (curve of first compound, second compound 0.0949 µM): 14.5 nM
IC50 (curve of first compound, second compound 0.3 µM): < 3.16 nM
viability, T/C (second compound 0.000949 µM, first compound 0.00316 µM): 87.1%
viability, T/C (second compound 0.000949 µM, first compound 0.01 µM): 62.7%
viability, T/C (second compound 0.000949 µM, first compound 0.0316 µM): 65.1%
viability, T/C (second compound 0.000949 µM, first compound 0.1 µM): 51%
viability, T/C (second compound 0.000949 µM, first compound 0.316 µM): 43.8%
viability, T/C (second compound 0.000949 µM, first compound 1 µM): 34.1%
viability, T/C (second compound 0.003 µM, first compound 0.00316 µM): 85.9%
viability, T/C (second compound 0.003 µM, first compound 0.01 µM): 75.5%
viability, T/C (second compound 0.003 µM, first compound 0.0316 µM): 63.8%
viability, T/C (second compound 0.003 µM, first compound 0.1 µM): 48.5%
viability, T/C (second compound 0.003 µM, first compound 0.316 µM): 38.8%
viability, T/C (second compound 0.003 µM, first compound 1 µM): 35.2%
viability, T/C (second compound 0.00949 µM, first compound 0.00316 µM): 75.3%
viability, T/C (second compound 0.00949 µM, first compound 0.01 µM): 56.6%
viability, T/C (second compound 0.00949 µM, first compound 0.0316 µM): 51.7%
viability, T/C (second compound 0.00949 µM, first compound 0.1 µM): 45.9%
viability, T/C (second compound 0.00949 µM, first compound 0.316 µM): 36.1%
viability, T/C (second compound 0.00949 µM, first compound 1 µM): 35%
viability, T/C (second compound 0.03 µM, first compound 0.00316 µM): 62.5%
viability, T/C (second compound 0.03 µM, first compound 0.01 µM): 59.3%
viability, T/C (second compound 0.03 µM, first compound 0.0316 µM): 45.2%
viability, T/C (second compound 0.03 µM, first compound 0.1 µM): 38.8%
viability, T/C (second compound 0.03 µM, first compound 0.316 µM): 31.3%
viability, T/C (second compound 0.03 µM, first compound 1 µM): 31.4%
viability, T/C (second compound 0.0949 µM, first compound 0.00316 µM): 65.4%
viability, T/C (second compound 0.0949 µM, first compound 0.01 µM): 56.9%
viability, T/C (second compound 0.0949 µM, first compound 0.0316 µM): 36.5%
viability, T/C (second compound 0.0949 µM, first compound 0.1 µM): 37.2%
viability, T/C (second compound 0.0949 µM, first compound 0.316 µM): 30.9%
viability, T/C (second compound 0.0949 µM, first compound 1 µM): 25.7%
viability, T/C (second compound 0.3 µM, first compound 0.00316 µM): 48.6%
viability, T/C (second compound 0.3 µM, first compound 0.01 µM): 44.4%
viability, T/C (second compound 0.3 µM, first compound 0.0316 µM): 36.6%
viability, T/C (second compound 0.3 µM, first compound 0.1 µM): 28.6%
viability, T/C (second compound 0.3 µM, first compound 0.316 µM): 28.8%
viability, T/C (second compound 0.3 µM, first compound 1 µM): 25.9%

C#Cc1c(F)ccc2cc(O)cc(-c3ncc4c(N5CC6CCC(C5)N6)nc(OCC56CCCN5CC(F)C6)nc4c3F)c12 (stereo not given)
viability, T/C (compound 0.1 µM): 102% [middle of 8 runs]
viability, T/C (compound 0.316 µM): 97.6% [middle of 8 runs]
viability, T/C (compound 1 µM): 94% [middle of 8 runs]
viability, T/C (compound 3.16 µM): 99.5% [middle of 8 runs]
viability, T/C (compound 10 µM): 95.7% [middle of 8 runs]
IC50 (compound alone, run of 06/10/2024): > 10000 nM

C[C@@H](NC(=O)c1ncnc(N)c1Cl)c1ncc(C(=O)Nc2cc(C(F)(F)F)c(Cl)cn2)s1
viability, T/C (compound 0.0316 µM): 105% [middle of 4 runs]
viability, T/C (compound 0.1 µM): 96% [middle of 4 runs]
viability, T/C (compound 0.316 µM): 88.5% [middle of 4 runs]
viability, T/C (compound 1 µM): 79.2% [middle of 4 runs]
viability, T/C (compound 3.16 µM): 79.1% [middle of 4 runs]
viability, T/C (compound 10 µM): 60.9% [middle of 4 runs]
IC50 (curve of compound): > 10000 nM
